The numbers were not newly measured in patent US20220323308A1, “DISSOLVABLE VITAMIN C AND RETINOL FILM” (Mary Kay Inc., priority 2019, published 2022), which cites them from elsewhere.

For the data set the following is noted: topical, when properly formulated.

Consider `O=C1O[C@H]([C@@H](O)CO)C(O)=C1O` [ascorbic acid], for which the “enhancement of endogenous ascorbic acid levels in the skin” value is recorded as “up to twenty-fold”.
